As a reminder, the IC50 is the concentration that gives 50% inhibition. Lower therefore signals greater potency.

Our source for the IC50 values is ChEMBL document CHEMBL4049402, “Synthesis and cytotoxic activity of novel tetrahydrobenzodifuran-imidazolium salt derivatives” (Bioorg Med Chem Lett, 2017).

Common to all, as to type: functional, cell-based
The test system of one experiment is HL-60. Kind of experiment: Cytotoxicity against human HL60 cells after 48 hrs by MTT assay. (In general: Tetrazolium assays rely on reduction of a dye to a coloured formazan, in cell work by metabolically active cells.)
A further experiment deals with SMMC-7721. Kind of experiment: Cytotoxicity against human SMMC7721 cells after 48 hrs by MTT assay.
The test system of the next experiment is A549. Kind of experiment: Cytotoxicity against human A549 cells after 48 hrs by MTT assay.
The next experiment deals with MCF7. As to the kind of experiment: Cytotoxicity against human MCF7 cells after 48 hrs by MTT assay.
A further experiment concerns SW480. Kind of experiment: Cytotoxicity against human SW480 cells after 48 hrs by MTT assay.

`Cc1cc2c(cc1C)[n+](CC(=O)c1ccc(Br)cc1)cn2Cc1c2c(cc3c1OCC3)OCC2` [listing 1 of 2 here]: the IC50 with HL-60 (Homo sapiens, HL-60, 48 h) was 4.04 µM; with SMMC-7721 (smmc-7721), 6.23 µM; with A549 (Homo sapiens, A549, 48 h), 8 µM; with MCF7 (Homo sapiens, MCF7, 48 h), 12.7 µM; in the experiment on SW480 (Homo sapiens, SW480, 48 h), 16.3 µM.

As for `Cc1cc2c(cc1C)[n+](Cc1ccc([N+](=O)[O-])cc1)cn2Cc1c2c(cc3c1OCC3)OCC2`, the IC50 with HL-60 (Homo sapiens, HL-60, 48 h) was > 20 µM; with SMMC-7721 (Homo sapiens, SMMC-7721, 48 h), > 20 µM; in the experiment on A549 (Homo sapiens, A549, 48 h), > 20 µM; in the experiment with MCF7 (Homo sapiens, MCF7, 48 h) it was > 20 µM; in the experiment with SW480 (Homo sapiens, SW480, 48 h) it was > 20 µM.

As to `Brc1ccc(C[n+]2cn(Cc3c4c(cc5c3OCC5)OCC4)c3ccccc32)cc1`, the half-inhibitory concentration (IC50) in the experiment with HL-60 (Homo sapiens, HL-60, 48 h) was 4.12 µM; in the experiment on SMMC-7721 (Homo sapiens, SMMC-7721, 48 h), 17.8 µM; with A549 (Homo sapiens, A549, 48 h), > 20 µM; in the experiment with MCF7 (Homo sapiens, MCF7, 48 h), 5.4 µM; in the experiment on SW480 (Homo sapiens, SW480, 48 h) it was 10.1 µM.

With `Cc1cc2c(cc1C)[n+](Cc1ccc(Br)cc1)cn2Cc1c2c(cc3c1OCC3)OCC2`, the IC50 in the experiment on HL-60 (Homo sapiens, HL-60, 48 h) came out at 0.49 µM; in the experiment on SMMC-7721 (Homo sapiens, SMMC-7721, 48 h), 4.72 µM; with A549 (Homo sapiens, A549, 48 h), 6.9 µM; in the experiment with MCF7 (Homo sapiens, MCF7, 48 h), 6.85 µM; in the experiment on SW480 (Homo sapiens, SW480, 48 h), 10.1 µM.

Regarding `O=C(C[n+]1cn(Cc2c3c(cc4c2OCC4)OCC3)c2ccccc21)c1ccccc1`, the IC50 with HL-60 (Homo sapiens, HL-60, 48 h) was > 20 µM; in the experiment on SMMC-7721 (Homo sapiens, SMMC-7721, 48 h), > 20 µM; in the experiment with A549 (Homo sapiens, A549, 48 h), > 20 µM; with MCF7 (Homo sapiens, MCF7, 48 h), > 20 µM; in the experiment with SW480 (Homo sapiens, SW480, 48 h) it was > 20 µM.

On to `Cc1cc2c(cc1C)[n+](CC(=O)c1ccc(Br)cc1)cn2Cc1c2c(cc3c1OCC3)OCC2` [listing 2 of 2 here], for which the IC50 in the experiment with HL-60 (hl-60) came to 2.38 µM; in the experiment on SMMC-7721 (smmc-7721), 13 µM; in the experiment on A549 (a549), 15.3 µM; in the experiment on MCF7 (mcf7), 18 µM; with SW480 (sw480), 15.2 µM.

Consider `Cc1n(Cc2c3c(cc4c2OCC4)OCC3)c2ccccc2[n+]1Cc1ccc([N+](=O)[O-])cc1`, for which the IC50 in the experiment with HL-60 (Homo sapiens, HL-60, 48 h) is > 20 µM; with SMMC-7721 (Homo sapiens, SMMC-7721, 48 h), > 20 µM; in the experiment on A549 (Homo sapiens, A549, 48 h) it was > 20 µM; in the experiment with MCF7 (Homo sapiens, MCF7, 48 h), > 20 µM; in the experiment with SW480 (Homo sapiens, SW480, 48 h), > 20 µM.

Turning to `COc1ccc(C(=O)C[n+]2cn(Cc3c4c(cc5c3OCC5)OCC4)c3ccccc32)cc1`, the IC50 in the experiment with HL-60 (Homo sapiens, HL-60, 48 h) was 5.99 µM; in the experiment with SMMC-7721 (Homo sapiens, SMMC-7721, 48 h) it was > 20 µM; with A549 (Homo sapiens, A549, 48 h) it was > 20 µM; in the experiment on MCF7 (Homo sapiens, MCF7, 48 h) it was 6.6 µM; in the experiment with SW480 (Homo sapiens, SW480, 48 h), 14 µM.
